Source: patent publication US6291530A, “Aryl-substituted acrylamides with Leukotriene B4 (LTB-4) receptor antagonist activity” (Novartis AG, priority 1999, dated 2001)

Columns and labels:
LTB-4 receptor = target: T1, LTB-4 receptor (Homo sapiens, UniProt Q15722); experiment: LTB-4 receptor binding assay: binding of [H^3]-LTB-4 to intact human neutrophils; conditions: [H^3]-LTB-4, intact human neutrophils
T1 construct: to intact human neutrophils; endogenous in cells; host or cells: intact neutrophils prepared from human venous blood
Procedure: LTB-4 receptor binding is dete mined in the following assay involving receptor binding of [H^3 ]-LTB-4 to intact human neutrophils.
(§1) LTB-4 is purchased as a solution in either ethanol or DMSO (Biomol, Plymouth Meeting, Pa.) and diluted into Hank's balanced Salt Solution (HBSS) before use. For in vitro tests, test compounds are dissolved in DMSO to produce stock solution of 10 mM. Dilutions are made so that the final concentration of DMSO is 0.35%.
Neutrophils are prepared from […] human venous blood. Blood (25 ml) is mixed with HESPAN (15 ml)(DuPont, Wilmington, Del.) and allowed to stand at room temperature for 40 minutes. The supernatant is removed and centrifuged for 10 minutes at 400×g. The resulting pellet is resuspended in phosphate-buffered saline without calcium and magnesium (GIBCO, Grand Islands N.Y.). Thirty-five ml of the resuspended cells is layered over 15 ml of Ficoll-Paque (Sigma, St Louis, Mo.) and then centrifuged for 15 minutes at 420×g. The resulting cell pllet is resuspended in 10 ml of phosphate-buffered saline without calcium and magnesium. Twenty-five ml of deionized water are added to the suspension for 20 seconds followed by the same volume of buffer at twice the normal concentration. The suspension is centrifuged for 5 minutes at 200×g,and the pellet resuspended in Hank's Balanced Salt Solution (HBSS).
Binding of [H^3 ]-LTB-4 to neutrophils is measured as described by Gorman and Lin, Methods Enzymol. 141: 372-378 (1987) and Jackson et al., J. Pharmacol.Exp. Ther., Vol. 262, p. 80 (1992). Intact human ntutrophils (3×106) are added to HBSS containing 0.5 nM [H^3 ]-LTB-4 (specific activity 32 Ci/mmol, DuPont-NEN, Boston, Mass.) and compound (final volume 0.5 ml). After incubating for 20 minutes at 0° C., the bound radioactivity is collected on Whatman GF/C filters by vacuum filtration using a Brandel harvester. The filters are washed twice with ice cold HBSS. Filters are counted using Formula-989 scintillation cocktail (DuPont-NEN, Boston, Mass.). Non-specific binding is determined in the presence of 300 nM LTB-4 (Biomol Res. Labs, Plymouth Meeting, Pa.).

[1] = test system: arachidonic acid-induced mouse ear inflammation; experiment: Arachidonic acid-induced mouse ear inflammation model; type: in vivo
Procedure: The methodology used is essentially that described by Young et al., J. Invest. Dermatol. 82, 367-371 (1984). Female mice (A/J, Jakson Labs., Bar Harbor, Me.) weighing 20 gm are divided into groups consisting of six mice per treatment group. They are fasted overnight. Arachidonic acid (2 mg in 15 μl acetone) (Sigma, St Louis, Mo.) is applied to the inner surface of the right ear. The left ear received 15 μl of acetone. […] […] Edema is determined by subtracting the weight of the left ear punch from that of the right ear. As the marker for neutrophil infiltration, myeloperoxidase activity is measured as described by Bradley et al., J. Invest. Dermatol., Vol. 78, p. 206 (1982). The right ear punches from the both the vehicle and compound treated groups are used. The percentage of inhibition is calculated by comparing the myeloperoxidase activity of the compound treated groups with those of the vehicle treated group.

[2] = test system: LTB-4-induced intracellular calcium rise in human neutrophils; experiment: Inhibition of the LTB-4-induced intracellular calcium rise in human neutrophils; type: cell-based; conditions: Neutrophil, read-out: Concentration at which calcium rise is inhibited
Procedure: as §1
Inhibition of LTB-4 is determined by measuring the inhibition of the LTB-4-induced intracellular calcium rise in human neutrophils. Increases in intracellular Ca++ are measured as described by Seligmann et al., Agents and Actions, Vol. 21, p. 375 (1987). Neutrophils are purified from citrated human venous blood by sedimentation in HESPAN as described above. Neutrophils are isolated from the resulting pellet by centrifugal elutriation (Berkow et al., J. Lab. Clin. Med., Vol. 104, p. 698, 1984). Except were noted the neutrophils are incubated with acetoxymetbyl ester of Fura-2 (0.2 μM)(Molecular Probes Inc.) for 30 minutes at 37° C. in HEPES-buffered Hank's solution containing Ca++ and Mg++. The Fura-2 loaded cells are washed and stored on ice at a concentration of 2×10^6 cells/ml in 10 mM HEPES-buffered HBSS without Ca++ and Mg++. Fifteen minutes before assay, 1.5 ml of the cell suspension is mixed with 10 μl of 0.15 M Ca++ and 0.15 M Mg++ by stirring at 37° C. Compounds are added 40 seconds before the addition of 1 nM LTB-4. The change in fluorescence was followed using a DMX 1000 spectrofluorometer (SLM-Aminco Instruments, Urbana Ill.).

[3] = 3 mg/Kg p.o., 1.5 hours post administration
[4] = 10 mg/Kg p.o., 18 hours post administration

T1 sequence (Q15722 whole entry): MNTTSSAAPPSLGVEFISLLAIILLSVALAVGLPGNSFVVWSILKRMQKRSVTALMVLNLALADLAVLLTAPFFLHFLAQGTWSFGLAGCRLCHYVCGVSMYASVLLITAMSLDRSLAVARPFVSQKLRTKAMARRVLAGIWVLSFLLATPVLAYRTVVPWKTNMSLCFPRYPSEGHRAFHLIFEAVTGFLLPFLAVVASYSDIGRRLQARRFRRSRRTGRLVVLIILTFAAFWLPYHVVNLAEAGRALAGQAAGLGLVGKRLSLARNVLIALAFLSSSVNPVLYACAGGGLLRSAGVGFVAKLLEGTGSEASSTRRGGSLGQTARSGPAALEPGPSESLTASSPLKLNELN

Which results are given for CCN(CC)C(=O)/C=C(\C)c1ccc(OCc2c(F)cccc2F)c(OCC(=O)O)c1 [Example 2y, (E)-[5-(2-Diethylcarbamoyl-1-methylvinyl)-2-(2,6-difluorobenzyloxy)-phenoxy]-acetic acid]?
IC50 (LTB-4 receptor): ~0.048 µM; Inhibition of edema [1, 3]: inhibit; Inhibition of myeloperoxidase activity [1, 3]: inhibit; Inhibition of edema [1, 4]: inhibit; Inhibition of myeloperoxidase activity [1, 4]: inhibit; IC50 [2]: ~0.018 µM

What does the source list for CCN(CC)C(=O)/C=C(\C)c1ccc(OCc2c(F)cccc2F)c(CC(=O)O)c1 [Example 8a, (E)-[5-(2-diethylcarbamoyl-1-methyl-vinyl)-2-(2,6-difluorobenzyloxy)-phenyl]-acetic acid]?
IC50 (LTB-4 receptor): ~0.087 µM; Inhibition of edema [1, 3]: inhibit; Inhibition of myeloperoxidase activity [1, 3]: inhibit; Inhibition of edema [1, 4]: inhibit; Inhibition of myeloperoxidase activity [1, 4]: inhibit; IC50 [2]: ~0.022 µM

With CCN(CC)C(=O)/C=C(\C)c1ccc(OC(C)c2ccccc2)c(CC(=O)O)c1 (stereo not drawn) [Example 8b, (E)-[5(2-diethylcarbamoyl-1-methylvinyl)-2-(1-phenyl-ethoxy)-phenyl]-acetic acid] as the compound, how does the IC50 (LTB-4 receptor) read?
Its IC50 is ~0.074 µM.

And the Inhibition of edema [1, 3]?
Its Inhibition of edema is “inhibit”.

And the “Inhibition of myeloperoxidase activity” value [1, 3]?
Its value is “inhibit”.

What about the Inhibition of edema [1, 4] of the same compound?
The Inhibition of edema was “inhibit”.

What about the “Inhibition of myeloperoxidase activity” value [1, 4] of the same compound?
Its value is “inhibit”.

What about the IC50 [2] of the same compound?
The IC50 was ~0.008 µM.
